Reference: patent US20250129045A1, “SMALL MOLECULE PIM AND MTOR KINASE INHIBITOR AND METHODS OF USE THEREOF” (Arizona Board of Regents on Behalf of the University of …, priority 2022, published 2025)
“Also recorded” adds a separate entry of the source. Read-outs that look alike come from different tables or passages of the source.

How the values were obtained:
[1] = tested on: PANC1 pancreatic cancer cells; test: Growth inhibition of PANC1 pancreatic cancer cells; type: cell-based
Description: Cell growth assay: Tumor cells were seeded into 48 well plates (1000 cells/well) and treated with varied agents. The Incucyte real-time imaging system (Incucyte) was used to measure cell proliferation using a non-label cell monolayer confluence approach. The images were captured every 12 h. Graphs were generated using an integrated confluence metric as an alternative for cell numbers. At the end of the study cell growth was visualized by crystal violet staining.
(§1) Because of ease of growth, PANC1 pancreatic cancer cells were used to test the activity of derivatives of VBT-5445 (FIG. 14). […] Using a doxycycline inducible Pim kinase vector in these tumor cells, this inhibition of phosphorylation was proportional to the level of Pim in these cells (FIG. 9). […] Inhibition of mTORC1 is known to stimulate the feedback activation of mTORC2 leading to AKT phosphorylation. […] The effect of these compounds on mTORC1 and 2 was still evident in PC3-LN4 cells that contained a knockout (KO) using CRISPR/CAS9 of either TSC2 or DEPDC5 (FIG. 12, lanes 4-9). TSC2 KO activated the Rheb GTPase while DEPDC5 KO activated the RAG GTPase both of which stimulate mTORC1 activity. Thus, GRG compounds were capable of inhibiting mTORC1 activity even when this kinase was highly activated.

DU145 prostate cancer = DU145 prostate cancer growth (crystal violet, 7 days); type: cell-based; conditions: 7 days of growth
Description: (§2) Cells were plated at 1000 cells per well and 24 h later treated with GRG compounds. After 7 days of growth, tumor cells were fixed with 4% paraformaldehyde, stained with 0.5% crystal violet in methanol and lysed in SDS. The absorbance of six samples treated with each compound or DMSO control was read at 570 nm. The error bars represent the Standard Deviation of these measurements
Cell growth was measured as in FIG. 17.

A549 lung cancer = A549 lung cancer growth (crystal violet, 7 days); type: cell-based; conditions: 7 days of growth
Description: as §2

mTORC = test: Phosphorylation of mTORC substrates in PANC1 cells (Western blot); type: cell-based; conditions: overnight incubation
Description: (§3) Immunoblotting: Western blots were performed as described previously. Briefly, protein lysates (30 μg) were subjected to SDS-PAGE and transferred to nitrocellulose membranes. After blocking with 5% milk in TBST buffer for 30 min at room temperature, the membranes were incubated overnight at 4° C. with the Indicated primary antibody in 3% BSA in TBST. Specific proteins were detected with the corresponding HRP conjugated secondary antibody using enhanced chemiluminescence (GE Lifesciences, Piscataway, NJ).
as §1

PC3-LN4 cells = test: Western blotting of PC3-LN4 cell lysates; type: cell-based, human
Description: FIG. 7A: In vitro co-precipitation (Co-PPT) assay was performed with recombinant EDC3 and biotinylated Pim1 using Streptavidin beads with increasing concentrations of the Pim inhibitor VBT5445 (VBT). FIG. 7B: Kinase assays were performed with recombinant EDC3 and Pim1 with increasing concentrations of VBT. FIG. 7C: Cell lysates from PC3-LN4 cells cultured with DMSO, 10 μM VBT, 3 μM AZD5363 (AKTi) and the combination for 6 hrs were subjected to western blotting (WB). […] WBs were performed using the indicated antibodies. FIG. 7E: PC3-LN4 cells were seeded into 48 well plate and incubated with either DMSO, VBT, AZD5363 or the combination, for 4.5 days. A real-time imaging system (IncuCyte™) was used to measure cell proliferation using a non-label cell monolayer confluence approach. FIG. 7F-7H: GFP image in PC3 LN4 GFP EDC3 expressing cells treated with PIMi: VBT (5 μM) and VBT (5 μM)+AZD5363 (3 μM) for 6 hrs.
Extracts were subjected to Western blotting with the indicated antibodies.
as §3

PANC1 cells = test: Reverse-phase protein array (RPPA) of PANC1 cells, Table 3; type: cell-based; conditions: 6 h treatment, divided by zero-time value, average of triplicate
Description: To further examine how these compounds function to inhibit tumor growth, changes in both a wide variety of phosphoprotein and protein levels using reverse-phase protein arrays (RPPA) were evaluated. […] The values in the RPPA obtained at these two time points were divided by the value at time zero to allow an evaluation of the changes caused by each drug treatment.

[2] = tested on: T-cell acute lymphoblastic leukemia cell line DU528; test: Cell viability (XTT) assay in T-ALL cells; type: cell-based; conditions: 72 h, listed as VBT 1-34
Description: Cell viability (XTT) assay: T-ALL cells were seeded into 96 well plates at a density of 20,000 cells per well and treated with VBT-5445 for 72 h, using DMSO as control. Cell viability was measured using XTT cell proliferation assay (Trevigen Cat #4891-025-K) following the manufacturer's protocol. Briefly, XTT reagent was added to cell culture after the treatment and incubated for 4 h at 37° C. and 5% CO2. The absorbance of the colored formazan product was measured at 450 nm.

## O=c1c(CNCc2cc(Br)ccn2)cc2ccc(Cl)cc2n1CCOc1ccccc1 [GRG-1-34, 3-((((4-bromopyridin-2-yl)methyl)amino)methyl)-7-chloro-1-(2-phenoxyethyl) quinolin-2 (1H)-one]
[1]
  growth inhibitory activity against PANC1 pancreatic cancer cells: most active
[1]; listed as VBT 1-34
  growth inhibitory activity against PANC1 pancreatic cancer cells: inhibits the growth; also recorded: shows activity
DU145 prostate cancer
  DU145 prostate cancer growth: Inhibition
DU145 prostate cancer; listed as VBT 1-34
  DU145 prostate cancer growth: shows activity
A549 lung cancer
  A549 lung cancer growth: Inhibition
A549 lung cancer; listed as VBT 1-34
  A549 lung cancer growth: shows activity
mTORC; FIG. 19
  block of phosphorylation of mTORC substrates (AKT, 4E-BP1, S6): block the phosphorylation of mTORC substrates
mTORC; FIG. 19, listed as VBT 1-34
  block of phosphorylation of mTORC substrates (AKT, 4E-BP1, S6): inhibit phosphorylation of mTORC substrates
PC3-LN4 cells
  cellular level of Pim kinases: decreases
  cellular level of c-Myc protein: decreases
  mTORC1 activity: phosphorylation of the S6 protein: inhibited the phosphorylation of the mTORC1 substrate S6 protein
  phosphorylation of AKT on serine 473: increased the phosphorylation of AKT on serine 473
PC3-LN4 cells; listed as VBT 1-34
  mTORC1 activity: phosphorylation of the S6 protein: decreases
PANC1 cells
  4EBP1S65, RPPA value after treatment / zero-time value: 0.52
  4EBP1T70, RPPA value after treatment / zero-time value: 0.75
  ATMS1981, RPPA value after treatment / zero-time value: 0.46
  CICaspase3D175, RPPA value after treatment / zero-time value: 1.09
  CofilinS3, RPPA value after treatment / zero-time value: 0.46
  CrkIIY221, RPPA value after treatment / zero-time value: 1.58
  ERKT202_Y204, RPPA value after treatment / zero-time value: 2.39
  FAKY576_577, RPPA value after treatment / zero-time value: 0.78
  FKHR-FOX01S256, RPPA value after treatment / zero-time value: 0.71
  GSK3a_bS21_9, RPPA value after treatment / zero-time value: 1.66
  HistoneH2AXS139, RPPA value after treatment / zero-time value: 0.76
  HistoneH3S10, RPPA value after treatment / zero-time value: 0.69
  IL-1bcleavedD116, RPPA value after treatment / zero-time value: 0.41
  Jak1Y1022_1023, RPPA value after treatment / zero-time value: 0.79
  MAPKpTEpY, RPPA value after treatment / zero-time value: 1.35
  PDGFRbY751, RPPA value after treatment / zero-time value: 7.02
  PP1aT320, RPPA value after treatment / zero-time value: 0.47
  PaxillinY118, RPPA value after treatment / zero-time value: 1.08
  RetY905, RPPA value after treatment / zero-time value: 0.77
  S6RibosomalPS235_236, RPPA value after treatment / zero-time value: 1.05
  S6RibosomalProtein S240_244, RPPA value after treatment / zero-time value: 0.95
  SAPK_JNKT183_Y185, RPPA value after treatment / zero-time value: 0.85
  Stat2Y690, RPPA value after treatment / zero-time value: 2.89
  Stat3Y705, RPPA value after treatment / zero-time value: 1.57
  Tyk2Y1054_1055, RPPA value after treatment / zero-time value: 0.39
  VEGFR2Y1175, RPPA value after treatment / zero-time value: 0.54
  YAPS127, RPPA value after treatment / zero-time value: 0.68
  cAbIY245, RPPA value after treatment / zero-time value: 0.87
  cKitY703, RPPA value after treatment / zero-time value: 1.8
  p38MAPKT180_Y182, RPPA value after treatment / zero-time value: 1.15
  p70S6KS371, RPPA value after treatment / zero-time value: 0.62
  p70S6KT389, RPPA value after treatment / zero-time value: 0.74
  p90RSKS380, RPPA value after treatment / zero-time value: 1.51
[2]
  growth of T-acute lymphoblastic leukemia cells: inhibits the growth; also recorded: shows activity
